Reference: patent publication US6437184B1, “Oxime compounds, their use, and intermediates for their production” (Sumitomo Chemical Company, Limited, priority 1997, dated 2002)

Tests used:
[1] = tested on: Cydia pomonella; assay: Insecticidal test against Cydia pomonella; format: in vivo; conditions: 168 h, 100 ppm water dilution, 0.2 ml on surface of artificial diet, eggs just before hatching, after 7 days
Experimental: A water dilution (100 ppm) of a test compound formulation obtained according to Formulation Example 1 was added dropwise at a volume of 0.2 ml and spread over the surface of an artificial diet having a weight of 3 g, which had been prepared in a 30 ml polyethylene cup. After air drying, placed in the cup was a piece of wax paper (about 2.5 cm square) having about 20 eggs which had been laid by Cydia pomonella and were just before hatching. Four pieces of such wax paper were used for each treatment. After 7 days, the mortality of the larvae was determined.

[2] = tested on: Helicoverpa armigera; assay: Insecticidal test against Helicoverpa armigera; format: in vivo; conditions: 120 h, 100 ppm water dilution, cotton leaf fragment immersed 10 seconds, third-instar larvae, after 5 days
Experimental: A cotton leaf fragment (diameter, 5 cm) was immersed for 10 seconds Lin a water dilution (100 ppm) of a test compound formulation obtained according to Formulation Example 1. This fragment was taken out from the dilution, air dried, and placed in a polyethylene cup having a diameter of 5.5 cm. One third-instar larva of Helicoverpa armigera was set free in each cup. Ten larvae were used for each treatment. After 5 days, the mortality of the larvae was determined.

[3] = tested on: Plutella xylostella; assay: Insecticidal test against Plutella xylostella; format: in vivo; conditions: 96 h, 50 ppm water dilution sprayed over potted cabbages, 25 ml per pot, third-instar larvae, after 4 days, read-out: mortality
Experimental: To a water dilution (50 ppm) of a test compound formulation obtained according to Formulation Example 1 was added a spreading agent (New RINOU available from Nihon Noyaku K.K.) at a dilution ratio of 3000-fold. The dilution was sprayed over potted cabbages at the four to five leaf stage at a volume of 25 ml per pot. After the treated plants were air dried, ten third-instar larvae of Plutella xylostella were set free on each pot. After 4 days, the mortality was determined.

[4] = tested on: Heliothis virescens; assay: Insecticidal test against Heliothis virescens; format: in vivo; conditions: 168 h, 100 ppm water dilution, 0.2 ml on surface of artificial diet, second-instar larvae, after 7 days
Experimental: A water dilution (100 ppm) of a test compound formulation obtained according to Formulation Example 1 was added dropwise at a volume of 0.2 ml and uniformly spread over the surface of an artificial diet having a weight of 3 g, which had been prepared in a 30 ml plastic cup. After air drying, one second-instar larva of Heliothis virescens was set free in each cup. Ten larvae were used for each treatment. After 7 days, the mortality of the larvae was determined.

| melting point | SMILES | mortality at 100 µg/mL [4] | other results |
| --- | --- | --- | --- |
| 87.9 °C | ClC(Cl)=CCON=CCOc1ccc(COc2c(Cl)cc(OCC=C(Cl)Cl)cc2Cl)cc1 [(360), 2-(4-(2,6-dichloro-4-(3,3-dichloro-2-propenyloxy)phenoxymethyl)phenoxy)acetaldehyde O-(3,3-dichloro-2-propenyl)oxime] |  |  |
| 90.1 °C | ON=Cc1ccc(OCCCCCOc2c(Cl)cc(OCC=C(Cl)Cl)cc2Cl)cc1 [(333), 4-(5-(2,6-dichloro-4-(3,3-dichloro-2-propenyloxy)phenoxy)pentyloxy)benzaldehyde oxime] |  |  |
| 56.1 °C | CCON=C(C)c1ccc(OCCCCCOc2c(Cl)cc(OCC=C(Cl)Cl)cc2Cl)cc1 [(321), 4′-(5-(2,6-dichloro-4-(3,3-dichloro-2-propenyloxy)phenoxy)-pentyloxy)acetophenone O-ethyloxime] |  |  |
| 121 °C | CC(=NO)c1ccc(OCCOc2c(Cl)cc(OCC=C(Cl)Cl)cc2Cl)cc1 [(337), 4′-(2-(2,6-dichloro-4-(3,3-dichloro-2-propenyloxy)phenoxy)-ethoxy)acetophenone oxime] |  |  |
| 56.4 °C | CC(=NOC(C)(C)C)c1ccc(OCCCCOc2c(Cl)cc(OCC=C(Cl)Cl)cc2Cl)cc1 [(298), 4′-(4-(2,6-dichloro-4-(3,3-dichloro-2-propenyloxy)phenoxy)butyloxy)acetophenone O-tert-butyloxime] |  |  |
| 70.3 °C | ClC(Cl)=CCOc1cc(Cl)c(OCc2ccc(C=NOCc3ccccc3)cc2)c(Cl)c1 [(313), 4-(2,6-dichloro-4-(3,3-dichloro-2-propenyloxy)phenoxymethyl)benzaldehyde O-benzyloxime] |  |  |
| 67.7 °C | CC(=NOCCCCCOc1c(Cl)cc(OCC=C(Cl)Cl)cc1Cl)c1ccc(Cl)nc1 [(569), 6-chloro-3-pyridyl methyl ketone O-(5-(2,6-dichloro-4-(3,3-dichloro-2-propenyloxy)phenoxy)pentyl)oxime] |  |  |
| 71.2 °C | N#Cc1ccc(C=NOCCCCOc2c(Cl)cc(OCC=C(Cl)Cl)cc2Cl)cc1 [(691), 4-cyanobenzaldehyde O-(4-(2,6-dichloro-4-(3,3-dichloro-2-propenyloxy)phenoxy)butyl)oxime] |  |  |
| 84.8 °C | CCON=Cc1ccc(COc2c(Cl)cc(OCC=C(Cl)Cl)cc2Cl)cc1 [(326), 4-(2,6-dichloro-4-(3,3-dichloro-2-propenyloxy)phenoxymethyl)benzaldehyde O-ethyloxime] |  |  |
| 95.9 °C | CON=Cc1ccc(COc2c(Cl)cc(OCC=C(Cl)Cl)cc2Cl)cc1 [(311), 4-(2,6-dichloro-4-(3,3-dichloro-2-propenyloxy)phenoxymethyl)benzaldehyde O-methyloxime] |  |  |

The remaining lines, values behind:

| SMILES | melting point | mortality at 100 µg/mL [4] | other results |
| --- | --- | --- | --- |
| CCON=C(C)c1ccc(OCCCOc2c(Cl)cc(OCC=C(Cl)Cl)cc2Cl)cc1 [(293), 4′-(3-(2,6-dichloro-4-(3,3-dichloro-2-propenyloxy)phenoxy)propyloxy)acetophenone O-ethyloxime] |  |  | mortality at 100 µg/mL [1]: ≥ 80%; mortality at 100 µg/mL [2]: ≥ 80% |
| CCON=C(C)COc1c(Cl)cc(OCC=C(Cl)Cl)cc1Cl [(30), (2,6-dichloro-4-(3,3-dichloro-2-propenyloxy)phenoxy)acetone O-ethyloxime] | 65.4 °C |  |  |
| O=[N+]([O-])c1ccc(ON=CCCCCOc2c(Cl)cc(OCC=C(Cl)Cl)cc2Cl)c([N+](=O)[O-])c1 | 65.2 °C |  |  |
| ClC(Cl)=CCON=CCCCCCOc1c(Cl)cc(OCC=C(Cl)Cl)cc1Cl [(76), 6-(2,6-dichloro-4-(3,3-dichloro-2-propenyloxy)phenoxy)hexanal O-(3,3-dichloro-2-propenyl)oxime] |  | ≥ 80% | mortality at 50 µg/mL [3]: ≥ 80%; mortality at 100 µg/mL [1]: ≥ 80% |
| ClC(Cl)=CCON=Cc1ccc(COc2c(Cl)cc(OCC=C(Br)Br)cc2Cl)cc1 [(280), 4-(2,6-dichloro-4-(3,3-dibromo-2-propenyloxy)phenoxymethyl)benzaldehyde O-(3,3-dichloro-2-propenyl)oxime] | 88.2 °C |  |  |
| ClC(Cl)=CCOc1cc(Cl)c(OCCCCOCC=NOCC=C(Br)Br)c(Cl)c1 [(3), 4-(2,6-dichloro-4-(3,3-dichloro-2-propenyloxy)phenoxy)butyloxyacetaldehyde O-(3,3-dibromo-2-propenyl)oxime] |  | ≥ 80% |  |
| ClC(Cl)=CCOc1cc(Cl)c(OCCCCOCC=NOCc2ccccc2)c(Cl)c1 [(5), 4-(2,6-dichloro-4-(3,3-dichloro-2-propenyloxy)phenoxy)butyloxyacetaldehyde O-benzyloxime] |  | ≥ 80% |  |
| ClC(Cl)=CCON=Cc1ccc(OCCCOc2c(Cl)cc(OCC=C(Cl)Cl)cc2Cl)cc1 [(283), 4-(3-(2,6-dichloro-4-(3,3-dichloro-2-propenyloxy)phenoxy)propyloxy)benzaldehyde O-(3,3-dichloro-2-propenyl)oxime] |  |  | mortality at 50 µg/mL [3]: ≥ 80%; mortality at 100 µg/mL [2]: ≥ 80% |
| CCCON=C(C)c1ccc(COc2c(Cl)cc(OCC=C(Cl)Cl)cc2Cl)cc1 [(346), 4′-(2,6-dichloro-4-(3,3-dichloro-2-propenyloxy)phenoxymethyl)acetophenone O-propyloxime] |  | ≥ 80% |  |
| ClC(Cl)=CCON=Cc1ccc(COc2c(Cl)cc(OCC=C(Cl)Cl)cc2Cl)cc1 [(279), 4-(2,6-dichloro-4-(3,3-dichloro-2-propenyloxy)phenoxymethyl)benzaldehyde O-(3,3-dichloro-2-propenyl)oxime] |  |  | mortality at 50 µg/mL [3]: ≥ 80%; mortality at 100 µg/mL [1]: ≥ 80%; mortality at 100 µg/mL [2]: ≥ 80% |
| ClC(Cl)=CCOc1cc(Cl)c(OCCCCCOCC=NOCC(Cl)(Cl)Cl)c(Cl)c1 [(160), 5-(2,6-dichloro-4-(3,3-dichloro-2-propenyloxy)phenoxy)pentyloxyacetaldehyde O-(2,2,2-trichloroethyl)oxime] |  | ≥ 80% |  |
| CC(=NOCCCCCOc1c(Cl)cc(OCC=C(Cl)Cl)cc1Cl)C(C)(C)C [(559), 3,3-dimethyl-2-butanone O-(5-(2,6-dichloro-4-(3,3-dichloro-2-propenyloxy)phenoxy)pentyl)oxime] |  | ≥ 80% |  |
| CCc1cc(OCC=C(Cl)Cl)cc(CC)c1OCCCCOCC=NOC(C)(C)C [(11), 4-(2,6-diethyl-4-(3,3-dichloro-2-propenyloxy)phenoxy)butyloxyacetaldehyde O-tert-butyloxime] |  | ≥ 80% | mortality at 100 µg/mL [1]: ≥ 80%; mortality at 100 µg/mL [2]: ≥ 80% |
| ClC(Cl)=CCOc1cc(Cl)c(OCCOc2ccc(C=NOCC=C(Br)Br)cc2)c(Cl)c1 [(282), 4-(2-(2,6-dichloro-4-(3,3-dichloro-2-propenyloxy)phenoxy)-ethoxy)benzaldehyde O-(3,3-dibromo-2-propenyl)oxime] | 90.8 °C |  |  |
| ON=CCOCCCCOc1c(Cl)cc(OCC=C(Cl)Cl)cc1Cl [(148), 4-(2,6-dichloro-4-(3,3-dichloro-2-propenyloxy)phenoxy)butyloxyacetaldehyde oxime] | 62.8 °C |  |  |
| ClC(Cl)=CCOc1cc(Cl)c(OCCCON=Cc2ccccc2)c(Cl)c1 [(523), benzaldehyde O-(3-(2,6-dichloro-4-(3,3-dichloro-2-propenyloxy)phenoxy)propyl)oxime] |  | ≥ 80% | mortality at 50 µg/mL [3]: ≥ 80% |
